The values that follow come from ChEMBL document CHEMBL3046632 (Med Chem Res, 2004).

Assay [1] addresses Dopamine receptor D2 and D3 (Rattus norvegicus, UniProt P19020+P61169). The experiment in a line: Agonist activity at Rattus norvegicus (rat) dopamine D2/D3 receptor transfected in african green monkey COS7 cells assessed as inhibition of forskolin-stimulated adenylyl cyclase activity after 10 min. Type of assay: functional, cell-based. Conditions: cos-7.
The target in another assay is D(2) dopamine receptor (Rattus norvegicus, UniProt P61169). The experiment in a line: Agonist activity at Rattus norvegicus (rat) dopamine D2 receptor transfected in african green monkey COS7 cells assessed as inhibition of forskolin-stimulated adenylyl cyclase activity after 10 min. Format: functional, cell-based, COS-7.
The target in another assay is D(3) dopamine receptor (Rattus norvegicus, UniProt P19020). The experiment in a line: biochemical.
Chain of D(3) dopamine receptor (P19020 whole entry): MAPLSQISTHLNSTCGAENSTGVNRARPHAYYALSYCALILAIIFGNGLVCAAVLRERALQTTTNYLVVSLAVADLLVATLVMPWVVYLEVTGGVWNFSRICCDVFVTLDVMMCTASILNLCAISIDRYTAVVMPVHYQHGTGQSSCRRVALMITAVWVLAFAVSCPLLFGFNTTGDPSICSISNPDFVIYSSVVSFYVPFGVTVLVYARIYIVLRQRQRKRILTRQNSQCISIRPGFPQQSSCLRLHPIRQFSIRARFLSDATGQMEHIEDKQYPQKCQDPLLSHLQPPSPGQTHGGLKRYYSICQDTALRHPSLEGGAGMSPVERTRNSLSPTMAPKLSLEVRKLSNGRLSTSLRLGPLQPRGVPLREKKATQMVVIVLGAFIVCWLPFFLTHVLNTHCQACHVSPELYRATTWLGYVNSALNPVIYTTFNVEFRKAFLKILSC

Chain of D(2) dopamine receptor (P61169 whole entry): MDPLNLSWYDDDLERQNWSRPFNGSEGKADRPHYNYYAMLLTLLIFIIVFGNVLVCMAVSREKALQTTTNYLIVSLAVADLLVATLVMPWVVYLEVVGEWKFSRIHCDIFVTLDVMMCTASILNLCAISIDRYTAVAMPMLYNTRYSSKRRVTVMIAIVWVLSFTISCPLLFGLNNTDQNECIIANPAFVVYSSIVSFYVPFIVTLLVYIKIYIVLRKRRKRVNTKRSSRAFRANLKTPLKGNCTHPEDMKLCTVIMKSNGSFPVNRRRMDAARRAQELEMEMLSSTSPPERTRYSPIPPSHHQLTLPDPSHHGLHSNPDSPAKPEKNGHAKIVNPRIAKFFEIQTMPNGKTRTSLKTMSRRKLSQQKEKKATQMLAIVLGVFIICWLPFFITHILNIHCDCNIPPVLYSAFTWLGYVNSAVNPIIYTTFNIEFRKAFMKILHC

For orientation: EC50 means the concentration giving half of the maximal effect. One may read the IC50 as the concentration that gives 50% inhibition. On to `CCCN1CCO[C@@H]2c3cc(C(N)=O)ccc3CC[C@H]21` (relative stereo), for which the EC50 in assay [1] stood at 1.5 nM; on D(2) dopamine receptor it was 49.5 nM. Moreover, inhibition against D(3) dopamine receptor was half-maximal at 4.13 nM (IC50).
In turn, `CCCN[C@H]1CCc2nc(N)sc2C1` [PRAMIPEXOLE] showed an IC50 against D(3) dopamine receptor of 7.8 nM.
Turning to `CCCN(CCC)CCc1cccc2c1CC(=O)N2` [ROPINIROLE], at D(2) dopamine receptor, the EC50 worked out at 75.5 nM.
As usually defined, the Ki is the equilibrium dissociation constant of an inhibitor or competing ligand from its target. At D(3) dopamine receptor, `N#Cc1ccc2c(c1)[C@H]1CN(CCCCNC(=O)c3ccc(-c4ccccc4)cc3)C[C@@H]1CO2` came in with a Ki of 2.42 nM.
